Reference: patent US10399958B2, “PPAR agonists, compounds, pharmaceutical compositions, and methods of use thereof” (Mitobridge, Inc., priority 2015, dated 2019)
Like-named read-outs stand apart in the source and are kept apart here.

What was measured:
mdx mouse diaphragm = assay: Diaphragm fibrosis by hydroxyproline assay in mdx mice; type: in vivo; details: FIG. 10
Procedure: Diaphragm samples were harvested carefully and the central tendon was cut away to ensure hydroxyproline signal was derived from muscle and not collagen-rich tendon. Hydroxyproline assay was performed according to the manufacturers' instructions (Sigma-Aldrich Hydroxyproline Assay Kit). Final values were calculated as follows: […]
(§1) Diaphragm weights, histology scores and immunofluorescence data were tested using a parametric test if normality was confirmed by Shapiro-Wilk normality test (unpaired t-test for 2 groups or One way ANOVA followed by post hoc Dunn's multiple comparison testing versus the mdx vehicle group for 3 groups) and a Mann-Whitney test (2 groups) or Kruskal-Wallis One-Way ANOVA (non-parametric) followed by post hoc Dunn's multiple comparison testing versus the mdx vehicle group (3 groups) if the data were not normally distributed.
Diaphragms were evaluated for fibrosis by measuring hydroxyproline, an amino acid unique to collagen, in digested muscle. Mdx mice were confirmed to have increased fibrosis versus non-dystrophic control mice (FIG. 9).

[1] = test system: mdx mouse quadriceps muscle; assay: Immunofluorescent (IgM) assessment of muscle necrosis in mdx mice; type: in vivo; details: IgM immunofluorescence, FIG. 5
Procedure: Precut paraffin section slides were deparaffinized and incubated with AlexaFluor 488 conjugated wheat germ agglutinin followed by an incubation with Alexa 568 conjugated anti-mouse IgM (abcam, Product #ab175702). Slides were washed and mounted with coverslips using ProLong Diamond Antifade Mountant with DAPI. Imaging was performed on a Nikon fluorescent microscope using a 40× objective and composite images were stitched together using NIS Elements Software, V4.4 (Nikon, Tokyo, Japan). Analysis was completed using Image J 1.50b, Java 1.8.0_60 (64 bit).
as §1
Quadriceps muscle sections were labeled fluorescently to detect IgM antibody accumulation within damaged myofibers, an indication of loss of myofiber integrity and active necrosis. Each muscle section was imaged in its entirety and the number and size of necrotic regions was measured. […]

[2] = Pharmacokinetic (PK) screening (i.v.) in male CD1 mice; type: in vivo, mouse; details: male, CD1, mouse, plasma, iv, 1 mg/kg, I.V. 1 mg/kg dose, plasma
Procedure: In this example, the intravenous PK profile of several PPARδ agonists disclosed herein in male CD1 mice was determined. Similar methods can be used to analyze other compounds provided herein. All compounds were administered separately to CD1 mice at 1 mg/kg (i.v.), except the comparator compound to 2c was administered at 3 mg/kg (i.v.), as noted below.

[3] = test system: DMD human skeletal muscle cells; assay: Mitochondrial biogenesis (BrdU labeling); type: cell-based; details: DMD patient cells, treated from day 4 of differentiation, FIG. 2
Procedure: DMD human skeletal muscle cells were plated into 96 well plates. Media was changed to Differentiation Medium and cells were allowed to differentiate for 7 days. […] Three days later cells were labeled with bromodeoxyuridine (BrdU) in culture media for 2 hours. Following the incubation, cells were washed, and then incubated with anti-BrdU antibody overnight at 4° C. The next day, samples were washed incubated with anti-mouse IgG HRP for 45 min at 37° C., and then washed. Optical density was measured at 450 nm wavelength on a SpectraMax M5 (Molecular Devices).
Data was analyzed in Graph Pad Prism. Normality of distribution was determined by D'Agostino-Pearson omnibus normality test. If the samples were normally distributed, they were analyzed by One-Way ANOVA followed by a post hoc Dunnett's test vs DMSO control cells or unpaired two tailed T-test. If the samples were not normally distributed, then a Kruskal-Wallis test was used to determine significance.

mdx mouse muscle = assay: Histology pathology assessment of muscle in mdx mice; type: in vivo
Excerpt: Similar to the muscle pathology in Duchenne Muscular Dystrophy, mdx mice have dystrophic pathologies in skeletal muscle that is apparent soon after birth. Key aspects of this phenotype evident by pathology are the loss of myofibers through apoptosis/necrosis, evidence of regenerating muscle fibers, infiltrating immune cells, and increased muscle fibrosis.
Animals and dosing were as previously described. See Example 4.
Quadriceps, gastrocnemius and tibialis anterior muscles were harvested at necropsy, and fixed by immersion in 10% neutral buffered formalin and embedded in paraffin. Tissues were sectioned at […] from each block and slides were evaluated by a board certified veterinary pathologist. Histopathologic evaluation included qualitative and semi-quantitative evaluation for myofiber necrosis, inflammation, myofiber regeneration and interstitial fibrosis, as outlined in Tables 1, 2, and 3, respectively.
as §1

[4] = test system: Sprague-Dawley rat acute kidney injury; assay: Ischemia-reperfusion kidney injury in rats, plasma creatinine; type: in vivo; details: 30 mg/kg orally 4 hours after surgery, blood 24 hours after reperfusion, FIG. 11
Procedure: Sprague-Dawley male rats approximately 280-300 g, with ad libitum access to standard feed and water were used in these experiments. Rats were anesthetized with isoflurane and placed ventrally on a temperature controlled heated surgical platform. A skin incision was made on the dorsal surface, exposing both kidneys through flank incisions. Vascular clips were applied to both renal pedicles and occlusion lasted 45 minutes. After 45 min, the clips were removed, kidneys were monitored for successful reperfusion, and surgical sites were sutured. The sham group was subjected to similar surgical procedures, except that the occluding clamps were not applied. Four independent studies, testing each compound were performed. Compounds were formulated as a fresh daily suspension in 0.25% sodium carboxymethyl-cellulose, 0.25% Tween-80 in purified water. Compounds were dosed orally at 30 mg/kg 4 hours after animals awoke from surgery and sham surgery and IRI control animals were similarly dosed with vehicle.
Twenty-four (24) hours after reperfusion, blood was collected in K2 EDTA tubes by retro-orbital bleeding from all groups under mild isoflurane anesthesia. Plasma was separated by centrifugation at 3000 rpm for 10 minutes at 4° C. Plasma creatinine was analyzed using a fully automated clinical biochemistry analyzer (Siemens Dimension® Xpand® Plus Integrated Chemistry System)
Creatinine was tested for normal distribution in all groups via a D'Agostino-Pearson omnibus normality test and a Shapiro-Wilk normality test. Normally distributed data was subjected to an unpaired, two-tailed t test. Non-normally distributed data was subjected to a Mann-Whitney test (non-parametric). Statistical significance is determined by p<0.05 of IRI-vehicle compared to compound treated groups.

mdx mouse = assay: Endurance running assay (treadmill) in mdx mouse model of Duchenne Muscular Dystrophy; type: in vivo; details: mdx mice, 10 or 30 mg per kg PO, 34-35 days, FIG. 3
Excerpt: PPARδ is activated in response to exercise where it will elicit an increase in fatty acid utilization. Duchenne Muscular Dystrophy is a progressive, early-onset degenerative muscle disease with associated muscle function deficits resulting from the loss of the protein dystrophin. Fatty acid metabolism and altered mitochondrial function are reported to be an aspect of the disease.
C57BL/10ScSn-Dmdmdx/J and C57BL/10ScSnJ mice ˜5-7 weeks of age were received and housed singly in polycarbonate cages. Animals were fed standard chow and had access to feed and water at all times ad libitum. […] Vehicle was dosed for control groups. All the animals were dosed by oral gavage (PO) for 34-35 days. The mice were dosed at 8 AM on the last in-life study day with the necropsy started 2 hours after the final dose.
Mice were acclimated to a moving belt treadmill in a series of acclimation runs before evaluation for overall endurance at a set maximal speed. Each mouse was run in a separate lane that contained an electric stimulating grid. The number of visits to the electric stimulating grid and the number of shocks each animal received were recorded by the instrument and a technician evaluated the animal during the run to determine the time and distance to exhaustion. The maximum speed for all the three endurance runs was capped at 20 m/min. […]

In the case of Cc1cnc(-c2ccc(C(F)(F)F)cc2)n1Cc1ccccc1OCCC[C@@H](C)CC(=O)O [Compound 2d, (R)-3-methyl-6-(2-((5-methyl-2-(4-(trifluoromethyl)phenyl)-1H-imidazol-1-yl)methyl)phenoxy)hexanoic acid], the “Diaphragm fibrosis (hydroxyproline)” value (mdx mouse diaphragm) is reported as “reduced fibrosis”, the “Necrotic region size, quadriceps” value [1] is reported as “decreased” and the clearance ([2]; read-out: CL) is reported as 25 mL/min/kg. The clearance ([2]; read-out: High or Low CL) was < 85 mL/min/kg, the Mitochondrial biogenesis [3] was “increased in a dose-dependent manner” and the “Pathology scored necrosis, quadriceps” value (mdx mouse muscle; 10 or 30 mg per kg PO, 34-35 days, FIG. 4) was “Decreased necrosis”. The “Inflammation, quadriceps muscle” value (mdx mouse muscle; FIG. 6) was “Decreased inflammation”, the Quadriceps muscle regeneration (mdx mouse muscle; FIG. 7) was “increases” and the Diaphragm muscle necrosis (mdx mouse muscle; FIG. 8) was “reduced diaphragm necrosis”. The Plasma creatinine [4] was “reduce plasma creatinine” and the Treadmill running distance (mdx mouse) was “increased distance over mdx vehicle treated group mice”.
